Test results taken from ChEMBL document CHEMBL1697781, “Assessment of the health effects of chemicals in humans: II. Construction of an adverse effects database for QSAR modeling” (Curr Drug Discov Technol, 2004).

Legend:
Conditions in all cases: human; call rule not given here
Hepatotoxicity [1] = assay: FDA HLAED, liver enzyme composite activity
Hepatotoxicity [2] = assay: FDA HLAED, alkaline phosphatase increase
Hepatotoxicity [3] = assay: FDA HLAED, serum glutamic oxaloacetic transaminase (SGOT) increase
Hepatotoxicity [4] = assay: FDA HLAED, serum glutamic pyruvic transaminase (SGPT) increase
Hepatotoxicity [5] = assay: FDA HLAED, lactate dehydrogenase (LDH) increase
Hepatotoxicity [6] = assay: FDA HLAED, gamma-glutamyl transferase (GGT) increase
Throughout, for GGT Increase - Index Value: reference of the scale not given here.
Throughout, for LDH Increase - Index Value: reference of the scale not given here.

| Structure (SMILES) | Composite Activity - Active (Hepatotoxicity [1]) | Composite Activity - Marginal (Hepatotoxicity [1]) | Composite Activity - Score (Hepatotoxicity [1]) | Alkaline Phosphatase Increase - Activity Score (Hepatotoxicity [2]) | Alkaline Phosphatase Increase - Index Value (Hepatotoxicity [2]) | Alkaline Phosphatase Increase - Number of Reports (Hepatotoxicity [2]) | SGOT Increase - Activity Score (Hepatotoxicity [3]) | SGOT Increase - Index Value (Hepatotoxicity [3]) | SGOT Increase - Number of Reports (Hepatotoxicity [3]) | SGPT Increase - Activity Score (Hepatotoxicity [4]) | SGPT Increase - Index Value (Hepatotoxicity [4]) | SGPT Increase - Number of Reports (Hepatotoxicity [4]) | LDH Increase - Activity Score (Hepatotoxicity [5]) | LDH Increase - Index Value (Hepatotoxicity [5]) | LDH Increase - Number of Reports (Hepatotoxicity [5]) | GGT Increase - Activity Score (Hepatotoxicity [6]) | GGT Increase - Index Value (Hepatotoxicity [6]) | GGT Increase - Number of Reports (Hepatotoxicity [6]) |
| --- | --- | --- | --- | --- | --- | --- | --- | --- | --- | --- | --- | --- | --- | --- | --- | --- | --- | --- |
| CO[C@@]1(NC(=O)CSCC#N)C(=O)N2C(C(=O)O)=C(CSc3nnnn3C)CS[C@@H]21 [CEFMETAZOLE] | 0 | 0 | Inactive | Inactive | 0.1 | < 4 | Inactive | 0 | < 4 | Inactive | 0 | < 4 | Inactive | 25.5 | < 4 | Inactive | 0 | < 4 |
| O=C(O)C1=C(CSc2nnnn2CS(=O)(=O)O)CS[C@@H]2[C@H](NC(=O)[C@H](O)c3ccccc3)C(=O)N12 [CEFONICID] | 0 | 0 | Inactive | Inactive | 12.7 | < 4 | Inactive | 0 | < 4 | Inactive | 0 | < 4 | Inactive | 0 | < 4 | Inactive | 0 | < 4 |
| CCN1CCN(C(=O)N[C@@H](C(=O)N[C@@H]2C(=O)N3C(C(=O)O)=C(CSc4nnnn4C)CS[C@H]23)c2ccc(O)cc2)C(=O)C1=O [CEFOPERAZONE] | 0 | 0 | Inactive | Inactive | 0 | < 4 | Inactive | 0.4 | >= 4 | Inactive | 0.2 | < 4 | Inactive | 0.1 | < 4 | Inactive | 0 | < 4 |
| CO/N=C(\C(=O)N[C@@H]1C(=O)N2C(C(=O)O)=C(COC(C)=O)CS[C@H]12)c1csc(N)n1 [CEFOTAXIME] | 1 | 0 | Inactive | Inactive | 0.3 | < 4 | Active | 4.7 | >= 4 | Inactive | 2 | < 4 | Inactive | 0 | < 4 | Inactive | 0 | < 4 |
| CO[C@@]1(NC(=O)C2SC(=C(C(N)=O)C(=O)O)S2)C(=O)N2C(C(=O)O)=C(CSc3nnnn3C)CS[C@@H]21 (stereo partly specified) [CEFOTETAN] | 0 | 0 | Inactive | Inactive | 0.7 | < 4 | Inactive | 0 | < 4 | Inactive | 0 | < 4 | Inactive | 0 | < 4 | Inactive | 0 | < 4 |
| CO[C@@]1(NC(=O)Cc2cccs2)C(=O)N2C(C(=O)O)=C(COC(N)=O)CS[C@@H]21 [CEFOXITIN] | 0 | 0 | Inactive | Inactive | 0 | < 4 | Inactive | 0 | < 4 | Inactive | 0 | < 4 | Inactive | 0 | < 4 | Inactive | 0 | < 4 |
| COCC1=C(C(=O)OC(C)OC(=O)OC(C)C)N2C(=O)[C@@H](NC(=O)/C(=N\OC)c3csc(N)n3)[C@H]2SC1 (stereo partly specified) [CEFPODOXIME PROXETIL] | 0 | 0 | Inactive | Inactive | 1 | >= 4 | Inactive | 1 | >= 4 | Inactive | 0.8 | >= 4 | Inactive | 0.2 | < 4 | Inactive | 0.5 | < 4 |
| COCC1=C(C(=O)O)N2C(=O)[C@@H](NC(=O)/C(=N\OC)c3csc(N)n3)[C@H]2SC1 [CEFPODOXIME] | 0 | 0 | Inactive | Inactive | 1 | >= 4 | Inactive | 1 | >= 4 | Inactive | 0.8 | >= 4 | Inactive | 0.2 | < 4 | Inactive | 0.5 | < 4 |
| CC=CC1=C(C(=O)O)N2C(=O)[C@@H](NC(=O)[C@H](N)c3ccc(O)cc3)[C@H]2SC1 [CEFPROZIL] | 0 | 0 | Inactive | Inactive | 0.2 | >= 4 | Inactive | 0.4 | >= 4 | Inactive | 0.2 | >= 4 | Inactive | 0.2 | >= 4 | Inactive | 0.1 | < 4 |
| CC(C)(O/N=C(\C(=O)N[C@@H]1C(=O)N2C(C(=O)[O-])=C(C[n+]3ccccc3)CS[C@H]12)c1csc(N)n1)C(=O)O [CEFTAZIDIME] | 0 | 0 | Inactive | Inactive | 0 | < 4 | Inactive | 0 | < 4 | Inactive | 0 | < 4 | Inactive | 0 | < 4 | Inactive | 0 | < 4 |
| Nc1nc(/C(=C/CC(=O)O)C(=O)N[C@@H]2C(=O)N3C(C(=O)O)=CCS[C@H]23)cs1 [CEFTIBUTEN] | 0 | 0 | Inactive | Inactive | 0 | < 4 | Inactive | 0 | < 4 | Inactive | 0 | < 4 | Inactive | 0 | < 4 | Inactive | 0 | < 4 |
| CO/N=C(\C(=O)N[C@@H]1C(=O)N2C(C(=O)O)=CCS[C@H]12)c1csc(N)n1 [CEFTIZOXIME] | 2 | 0 | Active | Inactive | 2.9 | >= 4 | Active | 7.8 | >= 4 | Active | 4 | >= 4 | Inactive | 0.3 | < 4 | Inactive | 0 | < 4 |
